Assay [1] concerns Phosphorylated Ribosomal Protein S6 (RPS6) in THP-1 cells. In words: THP-1 RPS6 ELISA Assay. It is filed as cell-based. The conditions noted are these: Homo sapiens, 2 hours compound, 10 nM MCP-1 for 15 minutes, Phospho-RPS6 ELISA, read-out: PI3Kγ_THP1_RPS6_ELISA IC50. The method, then:
Example A. THP-1 RPS6 ELISA Assay To measure the Phosphorylated Ribosomal Protein S6 (RPS6) in cell lysates, THP-1 cells (Human Acute Monocytic Leukemia) are purchased from ATCC (Manassas, Va.) and maintained in RPMI with 10% FBS (Gibco/Life Technologies, Carlsbad, Calif.). For the assay, THP-1 cells are serum starved overnight in RPMI, then plated in RPMI (2×10^5 cells/well in 90 μL) into 96-well flat-bottom tissue culture treated plates (Corning, Corning, N.Y.), in the presence or absence of a concentration range of test compounds. Covered plates are incubated for 2 hours at 37° C., 5% CO2 then treated with or without 10 nM MCP-1 (MYBioSource, San Diego, Calif.) for 15 minutes at 37° C., 5% CO2. Plates are centrifuged at 1600 RPM and supernatants are removed. Cells are lysed in Lysis Buffer (Cell Signaling, Danvers, Mass.) with Protease Inhibitor (Calbiochem/EMD, Germany), PMSF (Sigma, St Louis Mo.), HALTS (Thermo Fisher, Rockford, Ill.) for 30 min on wet ice. Cell lysates are frozen at −80° C. before testing. The lysates are tested in the Human/Mouse/Rat Phospho-RPS6 ELISA (R&D Systems, Inc. Minn, Minn.). The plate is measured using a microplate reader (SpectraMax M5-Molecular Devices, LLC Sunnyvale, Calif.) set to 450 nm with a wavelength correction of 540. IC50 determination is performed by fitting the curve of inhibitor percent inhibition versus the log of the inhibitor concentration using the GraphPad Prism 5.0 software.
On the technique in general: In an ELISA, binding on a coated surface is turned into a signal by an enzyme label.

Assay [2] deals with PI3Kδ (p110δ/p85α) Recombinant Human Protein (Homo sapiens (Human), UniProt O00329). Kind of assay: PI3Kδ Scintillation Proximity Assay. Conditions: 20 μM PIP2, 2 μM ATP, 3.4 nM PI3Kδ, 120 min. It is filed as biochemical. The text has this:
Example C. PI3Kδ Scintillation Proximity Assay
[γ-^33P]ATP (10 mCi/mL) and Wheat Germ Agglutinin (WGA) YSi SPA Scintillation Beads was purchased from Perkin Elmer (Waltham, Mass.). Lipid kinase substrate, D-myo-Phosphatidylinositol 4,5-bisphosphate (PtdInS(4,5)P2)D (+)-sn-1,2-di-O-octanoylglyceryl, 3-O-phospho linked (PIP2), CAS 204858-53-7, was purchased from Echelon Biosciences (Salt Lake City, Utah). PI3Kδ (p110δ/p85α) Recombinant Human Protein was purchased from Eurofins (St Charles, Mo.). ATP, MgCl2, DTT, EDTA, MOPS and CHAPS were purchased from Sigma Aldrich (St. Louis, Mo.).
(§1) The kinase reaction was conducted in polystyrene 384-well Greiner Bio-one white plate from Thermo Fisher Scientific in a final volume of 25 μL. Inhibitors were first diluted serially in DMSO and added to the plate wells before the addition of other reaction components. The final concentration of DMSO in the assay was 2%. The PI3Kδ assay was carried out at room temperature in 20 mM MOPS, pH 6.7, 10 mM MgCl2, 5 mM DTT and CHAPS 0.03%. Reactions were initiated by the addition of ATP, the final reaction mixture consisted of 20 μM PIP2, 2 μM ATP, 0.5 μCi [γ-^33P]ATP, 3.4 nM PI3Kδ. Reactions were incubated for 120 min and terminated by the addition of 40 μL SPA beads suspended in quench buffer: 163 mM potassium phosphate pH 7.8, 20% glycerol, 25 mM EDTA. The final concentration of SPA beads is 1.0 mg/mL. After the plate sealing, plates were shaken overnight at room temperature and centrifuged at 1500 rpm for 10 min, the radioactivity of the product was determined by scintillation counting on Topcount (PerkinElmer). IC50 determination was performed by fitting the curve of percent of the solvent control activity versus the log of the inhibitor concentration using the GraphPad Prism 6.0 software.
A general note: In a scintillation proximity assay essentially only radioactivity close to the scintillant gives light.

The target in assay [3] is PI3Kγ (p110γ) Recombinant Human Protein (Homo sapiens (Human), UniProt P48736). In words: PI3K-γ Scintillation Proximity Assay. It is filed as biochemical. Conditions: 20 μM PIP2, 2 μM ATP, 13 nM PI3Kγ, 120 min.
PI3Kγ (p110γ) Recombinant Human Protein, sequence (P48736 whole entry): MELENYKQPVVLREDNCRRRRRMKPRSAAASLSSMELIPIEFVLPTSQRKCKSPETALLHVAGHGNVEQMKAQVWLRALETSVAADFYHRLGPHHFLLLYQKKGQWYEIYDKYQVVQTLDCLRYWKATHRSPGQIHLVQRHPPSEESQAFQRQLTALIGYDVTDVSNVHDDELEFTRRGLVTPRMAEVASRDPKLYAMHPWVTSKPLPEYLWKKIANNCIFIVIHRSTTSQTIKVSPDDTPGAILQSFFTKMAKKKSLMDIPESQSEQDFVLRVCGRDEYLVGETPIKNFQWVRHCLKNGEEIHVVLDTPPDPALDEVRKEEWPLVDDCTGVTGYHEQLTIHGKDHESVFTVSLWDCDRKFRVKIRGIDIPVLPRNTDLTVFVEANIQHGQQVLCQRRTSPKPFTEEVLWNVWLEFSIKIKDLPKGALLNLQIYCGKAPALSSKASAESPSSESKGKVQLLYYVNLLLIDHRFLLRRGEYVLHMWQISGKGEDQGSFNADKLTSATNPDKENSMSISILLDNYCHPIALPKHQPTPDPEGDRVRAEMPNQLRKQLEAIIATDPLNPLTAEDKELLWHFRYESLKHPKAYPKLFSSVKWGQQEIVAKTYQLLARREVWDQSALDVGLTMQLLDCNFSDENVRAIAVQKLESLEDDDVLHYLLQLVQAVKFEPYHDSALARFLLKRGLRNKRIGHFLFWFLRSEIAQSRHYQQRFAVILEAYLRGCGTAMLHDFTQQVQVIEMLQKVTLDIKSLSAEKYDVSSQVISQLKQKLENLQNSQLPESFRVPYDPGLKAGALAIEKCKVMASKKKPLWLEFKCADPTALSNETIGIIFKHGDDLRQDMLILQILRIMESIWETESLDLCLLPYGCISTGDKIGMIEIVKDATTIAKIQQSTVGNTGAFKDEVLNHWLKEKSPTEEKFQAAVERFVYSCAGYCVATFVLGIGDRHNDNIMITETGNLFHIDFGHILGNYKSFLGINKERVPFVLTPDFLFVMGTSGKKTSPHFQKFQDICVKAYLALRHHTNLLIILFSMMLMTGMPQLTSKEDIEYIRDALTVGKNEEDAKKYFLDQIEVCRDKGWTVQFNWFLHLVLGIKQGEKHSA
Excerpt: Example B. PI3K-γ Scintillation Proximity Assay
[γ-^33P]ATP (10 mCi/mL) and Wheat Germ Agglutinin (WGA) YSi SPA Scintillation Beads was purchased from Perkin Elmer (Waltham, Mass.). Lipid kinase substrate, D-myo-Phosphatidylinositol 4,5-bisphosphate (PtdInS(4,5)P2)D (+)-sn-1,2-di-O-octanoylglyceryl, 3-O-phospho linked (PIP2), CAS 204858-53-7, was purchased from Echelon Biosciences (Salt Lake City, Utah). PI3Kγ (p110γ) Recombinant Human Protein was purchased from Life technology (Grand Island, N.Y.). ATP, MgCl2, DTT, EDTA, MOPS and CHAPS were purchased from Sigma Aldrich (St. Louis, Mo.).
as §1, with “PI3Kγ” for “PI3Kδ”, “[γ-^33p]ATP, 13” for “[γ-^33P]ATP, 3.4”, “PI3Kγ.” for “PI3Kδ.”

Counter-ions that a name gives are not always drawn.

PI3Kδ (p110δ/p85α) Recombinant Human Protein, sequence (O00329 whole entry): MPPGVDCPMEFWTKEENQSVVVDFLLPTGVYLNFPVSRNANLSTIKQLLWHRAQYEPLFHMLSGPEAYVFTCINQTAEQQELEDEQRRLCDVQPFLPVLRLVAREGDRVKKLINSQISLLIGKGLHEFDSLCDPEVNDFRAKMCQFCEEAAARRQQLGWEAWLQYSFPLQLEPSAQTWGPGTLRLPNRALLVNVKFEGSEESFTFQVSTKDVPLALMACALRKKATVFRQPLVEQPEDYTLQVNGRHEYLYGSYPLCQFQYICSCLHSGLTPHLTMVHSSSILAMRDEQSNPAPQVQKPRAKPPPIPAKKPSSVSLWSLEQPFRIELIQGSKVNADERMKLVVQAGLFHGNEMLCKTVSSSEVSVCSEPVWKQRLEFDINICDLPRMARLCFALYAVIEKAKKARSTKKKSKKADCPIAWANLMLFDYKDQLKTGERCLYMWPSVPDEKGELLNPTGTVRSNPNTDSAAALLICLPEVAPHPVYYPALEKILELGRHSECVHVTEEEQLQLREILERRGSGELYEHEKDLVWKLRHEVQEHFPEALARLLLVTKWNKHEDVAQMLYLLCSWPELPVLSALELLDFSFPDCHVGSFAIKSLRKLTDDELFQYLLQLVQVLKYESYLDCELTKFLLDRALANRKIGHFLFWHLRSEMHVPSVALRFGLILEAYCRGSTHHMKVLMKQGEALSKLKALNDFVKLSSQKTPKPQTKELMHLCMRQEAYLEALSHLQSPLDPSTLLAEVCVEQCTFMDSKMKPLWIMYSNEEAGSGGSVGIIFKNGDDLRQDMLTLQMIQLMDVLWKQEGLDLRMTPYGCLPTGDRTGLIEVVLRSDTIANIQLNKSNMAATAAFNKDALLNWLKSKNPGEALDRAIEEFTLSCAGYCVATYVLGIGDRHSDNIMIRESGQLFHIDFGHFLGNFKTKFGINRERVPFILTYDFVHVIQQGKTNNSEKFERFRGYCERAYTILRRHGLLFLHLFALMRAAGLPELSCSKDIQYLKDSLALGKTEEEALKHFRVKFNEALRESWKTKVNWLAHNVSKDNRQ
PI3Kδ (p110δ/p85α) Recombinant Human Protein, sequence (P27986 whole entry partner): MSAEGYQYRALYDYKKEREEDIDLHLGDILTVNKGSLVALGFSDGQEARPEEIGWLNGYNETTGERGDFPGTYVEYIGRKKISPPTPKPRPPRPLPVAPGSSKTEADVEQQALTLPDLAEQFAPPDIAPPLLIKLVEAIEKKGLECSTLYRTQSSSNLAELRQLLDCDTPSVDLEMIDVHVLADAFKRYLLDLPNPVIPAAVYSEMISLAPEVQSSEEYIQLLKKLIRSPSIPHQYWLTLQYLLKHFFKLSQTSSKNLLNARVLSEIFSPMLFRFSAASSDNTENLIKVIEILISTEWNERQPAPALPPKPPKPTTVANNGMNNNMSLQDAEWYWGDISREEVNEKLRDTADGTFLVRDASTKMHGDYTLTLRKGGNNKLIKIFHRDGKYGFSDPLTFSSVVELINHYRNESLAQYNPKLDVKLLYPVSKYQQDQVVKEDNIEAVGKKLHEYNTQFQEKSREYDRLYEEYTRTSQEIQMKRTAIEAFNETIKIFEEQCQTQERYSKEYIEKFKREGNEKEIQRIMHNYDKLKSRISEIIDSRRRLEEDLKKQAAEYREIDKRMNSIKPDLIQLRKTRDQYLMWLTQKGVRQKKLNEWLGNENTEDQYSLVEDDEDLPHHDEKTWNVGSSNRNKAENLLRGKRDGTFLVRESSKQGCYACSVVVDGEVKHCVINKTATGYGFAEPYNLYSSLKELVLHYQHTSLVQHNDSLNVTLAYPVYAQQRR

For `C[C@@H](C1CC1)N1Cc2cc(-c3cnc4c(N)nc(-c5cn[nH]c5)cn34)cc(S(C)(=O)=O)c2C1=O` [Example 38, (S)-5-(8-Amino-6-(1H-pyrazol-4-yl)imidazo[1,2-a]pyrazin-3-yl)-2-(1-cyclopropylethyl)-7-(methylsulfonyl)isoindolin-1-one, trifluoroacetate salt], the IC50 – broadly, the concentration at which inhibition is half-maximal – in assay [1] was at least 1000 nM; in assay [2] it was at most 500 nM; in assay [3] it was at most 100 nM.
As to `C[C@@H](C1CC1)N1Cc2cc(-c3cnc4c(N)nc(C(F)(F)F)cn34)cc(C(O)(CO)C(F)(F)F)c2C1=O` (mixture of isomers) [Example 40, 5-(8-Amino-6-(trifluoromethyl)imidazo[1,2-a]pyrazin-3-yl)-2-((S)-1-cyclopropylethyl)-7-(1,1,1-trifluoro-2,3-dihydroxypropan-2-yl)isoindolin-1-one, trifluoroacetate salt], the IC50 in assay [1] was at least 1000 nM; in assay [2], below 2000 nM; in assay [3], at most 100 nM.
Take `C[C@@H](C1CC1)N1Cc2cc(-c3cnc4c(N)nc(C(F)(F)F)cn34)ccc2C1=O` [Example 5, (S)-5-(8-Amino-6-(trifluoromethyl)imidazo[1,2-a]pyrazin-3-yl)-2-(1-cyclopropylethyl)isoindolin-1-one]: the IC50 in assay [1] was at least 1000 nM; in assay [2], at least 2000 nM; in assay [3], at most 100 nM.
Turning to `Cc1[nH]ncc1-c1cn2c(-c3cc4c(c(S(C)(=O)=O)c3)C(=O)N([C@@H](C)C3CC3)C4)cnc2c(N)n1` [Example 37, (S)-5-(8-Amino-6-(5-methyl-1H-pyrazol-4-yl)imidazo[1,2-a]pyrazin-3-yl)-2-(1-cyclopropylethyl)-7-(methylsulfonyl)isoindolin-1-one, trifluoroacetate salt], the half-maximal inhibitory concentration (IC50) in assay [1] was below 1000 nM; in assay [2] it was at most 500 nM; in assay [3], at most 100 nM.
With `Cc1cc(-c2cnc3c(N)ncnn23)cc2cn(C(C)C3CC3)nc12` (racemic) [Example 18, 7-(2-(1-Cyclopropylethyl)-7-methyl-2H-indazol-5-yl)imidazo[2,1-f][1,2,4]triazin-4-amine trifluoroacetate salt], the figures for the IC50 in assay [1], in assay [2] and in assay [3] were at least 1000 nM, at least 2000 nM and at most 100 nM, respectively.
The like results for `CSc1cc(-c2cnc3c(N)nc(C(F)(F)F)cn23)cc2c1C(=O)N([C@@H](C)C1CC1)C2` [Example 2, (S)-5-(8-Amino-6-(trifluoromethyl)imidazo[1,2-a]pyrazin-3-yl)-2-(1-cyclopropylethyl)-7-(methylthio)isoindolin-1-one] were, in that order, at least 1000 nM, at most 500 nM and at most 100 nM.
For the molecule `C[C@@H](C1CC1)N1Cc2cc(-c3cnc4c(N)nc(C(=O)N5CC(C)(C)C5)cn34)cc(S(C)(=O)=O)c2C1=O` [Example 29c, (S)-5-(8-Amino-6-(3,3-dimethylazetidine-1-carbonyl)imidazo[1,2-a]pyrazin-3-yl)-2-(1-cyclopropylethyl)-7-(methylsulfonyl)isoindolin-1-one, trifluoroacetate salt], the IC50 in assay [1] is below 1000 nM; in assay [2], at most 500 nM; in assay [3], at most 100 nM.
Consider `C[C@@H](C1CC1)N1Cc2cc(-c3cnc4c(N)ncnn34)ccc2C1=O` [Example 6, (S)-5-(4-Aminoimidazo[2,1-f][1,2,4]triazin-7-yl)-2-(1-cyclopropylethyl)isoindolin-1-one], for which the IC50 is at least 1000 nM in assay [1], at least 2000 nM in assay [2] and at most 100 nM in assay [3].
`C[C@@H](C1CC1)N1Cc2cc(-c3cnc4c(N)nc(C(=O)N5CC(F)(F)C5)cn34)cc(S(C)(=O)=O)c2C1=O` [Example 29d, (S)-5-(8-Amino-6-(3,3-difluoroazetidine-1-carbonyl)imidazo[1,2-a]pyrazin-3-yl)-2-(1-cyclopropylethyl)-7-(methylsulfonyl)isoindolin-1-one, trifluoroacetate salt]: the IC50 in assay [1] is below 1000 nM; in assay [2], at most 500 nM; in assay [3], at most 100 nM.
Turning to `C[C@@H](C1CC1)N1Cc2cc(-c3cnc4c(N)nc(-c5ccnn5C)cn34)cc(S(C)(=O)=O)c2C1=O` [Example 36, (S)-5-(8-Amino-6-(1-methyl-1H-pyrazol-5-yl)imidazo[1,2-a]pyrazin-3-yl)-2-(1-cyclopropylethyl)-7-(methylsulfonyl)isoindolin-1-one, trifluoroacetate salt], the IC50 in assay [1] is at most 500 nM; in assay [2] it was at most 500 nM; in assay [3] it was at most 100 nM.
On to `Cc1ncc(-c2cn3c(-c4cc5c(c(S(C)(=O)=O)c4)C(=O)N([C@@H](C)C4CC4)C5)cnc3c(N)n2)s1` [Example 34, (S)-5-(8-Amino-6-(2-methylthiazol-5-yl)imidazo[1,2-a]pyrazin-3-yl)-2-(1-cyclopropylethyl)-7-(methylsulfonyl)isoindolin-1-one, trifluoroacetate salt], for which the IC50 in assay [1], in assay [2] and in assay [3] was at most 100 nM in each case.
Turning to `CC(=O)c1cc(-c2cnc3c(N)ncnn23)cc2c1C(=O)N([C@@H](C)C1CC1)C2` [Example 15, (S)-7-Acetyl-5-(4-aminoimidazo[2,1-f][1,2,4]triazin-7-yl)-2-(1-cyclopropylethyl)isoindolin-1-one trifluoroacetate salt], the IC50 was at least 1000 nM in assay [1], at most 500 nM in assay [2] and at most 100 nM in assay [3].
For `CC(C)N1Cc2cc(-c3cnc4c(N)nc(C(F)(F)F)cn34)ccc2C1=O` [Example 13, 5-(8-Amino-6-(trifluoromethyl)imidazo[l,2-a]pyrazin-3-yl)-2-isopropylisoindolin-1-one trifluoroacetate salt], the IC50 in assay [1] is at least 1000 nM; in assay [2] it was at least 2000 nM; in assay [3], at most 100 nM.

These data come from US11078204B2, “Heterocyclic derivatives as PI3K inhibitors” (Incyte Corporation, priority 2018, dated 2021).
